Measured values published in patent publication US11725020B2, “Prodrugs of a CDK inhibitor for treating cancers” (priority 2019, dated 2023).
Entries after “also recorded” stand apart in the source; their conditions may differ.

Legend:
[1] = tested on: SW620; conditions: read-out: antiproliferative IC50; cited from earlier work
[2] = tested on: human MM xenograft; conditions: 15 mg/kg; cited from earlier work
[3] = tested on: MM.1S; conditions: 48 hours, read-out: cytotoxicity IC50; cited from earlier work
[4] = Toxicokinetic study in rats: TK study, plasma AT7519 concentration; type: in vivo, Male SD (Sprague Dawley) rats; conditions: male, Sprague-Dawley, iv; rat plasma, I.V., 0.039 mmol/kg
Description: (§1) Male SD (Sprague Dawley) rats of body weight 220 to 240 g were maintained under standard conditions and randomized into three groups. On day 0 (initial day), all the animals were given one of the three compounds intravenously. Dose was calculated in mmol/kg.
(b) TK study: The remaining animals were randomized into three groups, with 6 in each group. […] TK analysis was conducted as follows: Blood samples were collected at time points of 2 min, 10 min, 1 h, 2 h, and 6 h into sample tube (heparinized).

[5] = Toxicity study in mice: body weight after a single i.v. dose; type: in vivo, Male mice (BABL/c)
Description: (§2) Male mice (BABL/c) of 20 to 22 g were maintained under standard conditions and randomized into groups. […] Doses were calculated and expressed in mmol/kg-body weight, and drug tolerability, pharmacokinetics, and body weight effect were assessed.
Clinical observations were made in the following schedule: continuous observation in the first four hours after dosing, and then twice daily, at one week time, and at day 14. The parameters for observation included animal's physical and mental behaviors, autonomous activity, hair, gland secretion, feces, and death. Body temperature was taken at pre-dosing, and on days 3, 5, 7, and 10 post-dosing.
The body weights of the animals are summarized in Table 4, and the trend lines for animal body weight changes in each group are given in FIG. 2. The body weight was average weight of all the animals in the group from a single measurement.

[6] = tested on: HCT116 colon cancer xenograft; conditions: 9.1 mg/kg twice daily, early-stage and advanced-stage s.c. tumors; cited from earlier work
[7] = 32.4 mg/m^2; cited from earlier work
[8] = tested on: HT29 colon cancer xenograft; conditions: 9.1 mg/kg twice daily, early-stage and advanced-stage s.c. tumors; cited from earlier work
[9] = tested on: MM.1R; conditions: 48 hours, read-out: cytotoxicity IC50; cited from earlier work
[10] = human, in vivo; cited from earlier work
[11] = tested on: peripheral blood mononuclear cells (PBMNC); conditions: cited from earlier work
[12] = tested on: MCF-7; conditions: read-out: antiproliferative IC50; cited from earlier work
[13] = Toxicity study in mice: toxicokinetics, plasma AT7519 concentration; type: in vivo, Male mice (BABL/c); conditions: for plasma AT7519 exposures compared with AT7519 dosing: i.v., compound 11 0.062 mmol/kg, compound 12 0.124 mmol/kg, AT7519 0.031 mmol/kg
Description: as §2
Blood samples were collected at 2 min, 10 min, 1 h, and 4 h. Concentration of T7519 was analyzed in each sample using LC-MS/MS method. The results are summarized in Table 3, and the concentration-time curves are illustrated in FIG. 1.

[14] = tested on: non-CDK kinases; conditions: with the exception of GSK3β; cited from earlier work
[15] = Toxicokinetic study in rats: dose exploration; type: in vivo, Male SD (Sprague Dawley) rats; conditions: rat, i.v., one animal
Description: as §1
(a) Dose exploration: One animal from each group was given the preset high dose of each compound.

[16] = Toxicity study in mice: tolerability after i.v. administration; type: in vivo; conditions: for toxicity compared with AT7519: 2-fold (11) and 4-fold (12) molar-equivalents of the AT7519 threshold level
Description: as §2

[17] = tested on: U266; conditions: U266, 48 hours; read-out: cytotoxicity IC50; cited from earlier work
[18] = single i.v. dose 0.031 mmol/kg on day 0, group average
[19] = male, BALB/c, mouse, plasma, iv, I.V., 0.031 mmol/kg
[20] = single i.v. dose 0.062 mmol/kg on day 0, group average
[21] = single i.v. dose 0.124 mmol/kg on day 0, group average

For `O=C(NC1CCNCC1)c1n[nH]cc1NC(=O)c1c(Cl)cccc1Cl` [AT7519, 4-(2,6-Dichlorobenzamido)-N-(4-piperidinyl)-1H-pyrazole-3-carboxamide], the IC50 [1] is listed as 940 nM, the median overall survival [2] is listed as “prolong the median overall survival” and the tumor growth [2] is listed as “inhibit tumor growth”. The IC50 [3] was 500 nM, the concentration at 2 min [4] was 19100 ng/mL and the concentration at 10 min [4] was 4600 ng/mL. For the same compound, the concentration at 1 h [4] was 814 ng/mL, the concentration at 4 h [4] was 554 ng/mL and the concentration at 6 h [4] was 148 ng/mL. The “Body weight (g) Day 0” value [5, 18] was 19.44 g, the “Body weight (g) Day 1” value [5, 18] was 19.53 g and the “Body weight (g) Day 2” value [5, 18] was 19.45 g. For the same compound, the “Body weight (g) Day 4” value [5, 18] was 20.94 g, the “Body weight (g) Day 7” value [5, 18] was 20.83 g and the “Body weight (g) Day 10” value [5, 18] was 20.63 g. For the same compound, the effect on tumors [6] was “tumor regression”, the “DLT among the initial three patients” value [7] was “one patient experienced DLT (grade 3 fatigue)” and the “DLT in two additional patients” value [7] was “both of whom experienced DLTs (febrile neutropenia and grade 3 hypokalemia and mucositis)”. The effect on tumors [8] was “tumor regression”, the IC50 [9] was over 2000 nM and the “AEs of CTCAE grade 1 severity” value [10] was 46.7%. The “AEs of CTCAE grade 2 severity” value [10] was 37.8%, the “patients with at least one treatment-related AE” value [10] was 82.1% and the “treatment-emergent AE anorexia” value [10] was 39.3%. The “treatment-emergent AE constipation” value [10] was 32.1%, the “treatment-emergent AE fatigue” value [10] was 42.9% and the “treatment-emergent AE hypotension” value [10] was 25.0%. For the same compound, the “treatment-emergent AE nausea” value [10] was 50.0%, the “treatment-emergent AE peripheral edema” value [10] was 25.0% and the “treatment-emergent AE pyrexia” value [10] was 25.0%. The “treatment-emergent AE vomiting” value [10] was 39.3%, the “cytotoxicity in PBMNC” value [11] was “does not induce cytotoxicity” and the IC50 [12] was 40 nM. It also gave a concentration at 2 min [13, 19] of 10200 ng/mL, a concentration at 10 min [13, 19] of 1840 ng/mL and a concentration at 1 h [13, 19] of 489 ng/mL. The concentration at 4 h [13, 19] was 47 ng/mL, the “activity against all non-CDK kinases” value [14] was “inactive” and the Animal death ([15]; 0.049 mmol/kg) was “already at their lethal doses; also recorded: Died immediately post-dosing”. For the same compound, the threshold lethal dose ([16]; male, BALB/c, mouse, in vivo, iv) was 0.031 mmol/kg, the “Death rate (%)” value ([16]; mice, i.v., 0.031 mmol/kg) was 20% and the Number of deaths ([16]; mice, i.v., 0.031 mmol/kg, 20 animals in group) was 4. The “Death rate (%)” value ([16]; mice, i.v., 0.039 mmol/kg) was 100% and the IC50 [17] was 500 nM.

In the case of `O=C(NC1CCNCC1)c1nn(COP(=O)([O-])[O-])cc1NC(=O)c1c(Cl)cccc1Cl.[Na+].[Na+]` [Compound 11], the “Body weight (g) Day 0” value [5, 20] is reported as 19.16 g, the “Body weight (g) Day 1” value [5, 20] is reported as 18.58 g and the “Body weight (g) Day 2” value [5, 20] is reported as 18.83 g. The “Body weight (g) Day 4” value [5, 20] was 19.95 g, the “Body weight (g) Day 7” value [5, 20] was 20.16 g and the “Body weight (g) Day 10” value [5, 20] was 20.52 g. The “plasma AT7519 exposures compared with AT7519 dosing” value [13] was “much higher”, the Animal death ([15]; 0.055 mmol/kg, listed as compound 11, phosphate disodium Salt) was “already at their lethal doses” and the Animal death ([15]; 0.055 mmol/kg, phosphate disodium Salt) was “Died at 2 min post-dosing”. For the same compound, the “Death rate (%)” value ([16]; mice, i.v., 0.062 mmol/kg) was 0% and the “toxicity compared with AT7519” value ([16]; mice, i.v.) was “much less toxic than AT7519”.

In the case of `COC(=O)[C@H](C)NP(=O)(Oc1ccccc1)N1CCC(NC(=O)c2n[nH]cc2NC(=O)c2c(Cl)cccc2Cl)CC1` (stereo partly drawn) [Compound 12, N-((4-(4-(2,6-dichlorobenzamido)-1H-pyrazole-3-carboxamido)-1-piperidinyl)(phenoxy)phosphinyl)-L-alanine methyl Ester], the “Body weight (g) Day 0” value [5, 21] is reported as 19.75 g, the “Body weight (g) Day 1” value [5, 21] is reported as 18.70 g and the “Body weight (g) Day 2” value [5, 21] is reported as 19.17 g. The “Body weight (g) Day 4” value [5, 21] was 19.95 g, the “Body weight (g) Day 7” value [5, 21] was 20.79 g and the “Body weight (g) Day 10” value [5, 21] was 21.30 g. The “plasma AT7519 exposures compared with AT7519 dosing” value [13] was “much higher”, the Animal death ([15]; 0.125 mmol/kg) was “Behaved normally” and the Animal death ([15]; 0.125 mmol/kg, listed as compound 12) was “did not induce the animal death”. The “Death rate (%)” value ([16]; mice, i.v., 0.124 mmol/kg) was 0% and the “toxicity compared with AT7519” value ([16]; mice, i.v.) was “much less toxic than AT7519”.
